Experimental data reported in patent US20220193241A1, “AGENT TARGETING DOUBLE-MEMBRANE ORGANELLE DNA” (CHIBA-PREFECTURE, priority 2019, published 2022).

What was measured:
Assay type in all cases: cell-based
A549 cells [1] = assay: Autophagy by anti-LC3 / cytochrome C immunofluorescent staining; settings: 20 μM, 4-day treatment
Excerpt: A possible cause of cellular senescence was the induction of mitochondrion-specific autophagy (mitophagy) of mutant mitochondria by the administration of CCC021-TPP. It is considered that the excessive production of reactive oxygen species in association therewith was involved in the induction of cellular senescence.

A549 cells [2] = assay: ROS production with MitoSOX Red; settings: 10 μM, 24 hours
Method: (§1) In order to confirm the production induction of reactive oxygen species (ROS) by mitophagy, the production of reactive oxygen species was fluorescently observed with MitoSOX Red (Invitrogen). 10^4 A549 or PC14 cells were inoculated, cultured for 10 hours, then treated with 10 μM CCC021-TPP for 24 hours, then washed with PBS, and treated at 37° C. for 10 minutes with MitoSOX Red dissolved in 13 μL of DMSO and diluted into 5 μM (final concentration) with PBS. The cells were washed with PBS and then observed under SP8 confocal microscope.

PC14 cells [3] = assay: ROS production with MitoSOX Red; settings: 10 μM, 24 hours
Method: as §1

A549 cells [4] = assay: SA-β-Gal staining (senescence marker β-galactosidase); settings: 20 μM, 5 days
Method: In order to study whether cellular senescence was induced, the activity of a senescence marker β-galactosidase was determined with SPiDER-β-Gal (DOINDO) in the A549 cells and the PC14 cells after CCC021-TPP administration. 1000 cells were inoculated to a 35 mm dish and then cultured for 24 hours. Then, CCC021-TPP was administered (final concentration: 20 μM), and the cells were cultured for 5 days, washed twice with Hanks' balanced salt solution (HBSS) (pH 7.3), then treated with 500 μL of 4% paraformaldehyde at room temperature for 3 minutes, then washed twice with HBSS again, then treated with 500 μl of SPiDER-β-Gal Working Solution at 37° C. for 30 minutes, then washed once with HBSS, and observed under SP8 confocal microscope.

A549 cells [5] = assay: WST assay of cell proliferation (CCC021-TPP); settings: Homo sapiens, 96 h; A549, 4 days
Method: (§2) The proliferation suppressive effect of CCC021-TPP on cells having the A14582G mtDNA mutation was evaluated by WST assay. Both the mitochondrial DNA mutated cell line A549 and a PC14 cell line having no mutation were inoculated at 1×10^3 cells/well to 96-well plates (Thermo Fisher Scientific), cultured for 24 hours, and then treated with CCC021-TPP (final concentration: 0, 1, 5, 10, 20, 25, 50, and 100 μM). The cells were further cultured for 4 days and then morphologically observed under optical microscope IX71 (OLYMPUS, Tokyo, Japan). Then, cell survival rates were calculated using Cell counting kit-8 (DOJINDO, Kumamoto, Japan) according to the instruction manual. DMSO (FUJIFILM Wako Pure Chemical Corp.) (final concentration: 1%) was added as a control to cells.
(§3) IC50 was calculated according to the following expression:
(§4) IC50=10(LOG(A/B)×(50−C)/(D−C)+LOG(B))

PC14 cells [6] = assay: WST assay of cell proliferation (CCC021-TPP); settings: PC14, 4 days
Method: as §2, §3, §4

A549 cells [7] = assay: Synthetic lethality: cell morphology with CCC021-TPP and ABT-263; settings: days 2 and 4
Excerpt: Since the suppression of cell death in the cellular senescence of the A549 cells was presumably due to the BCL pathway, it was believed that the apoptosis of cells whose cellular senescence was evoked by CCC021-TPP could be induced by combined use with ABT-263 (Cayman Chemical Company) serving as a senolytic drug and a BCL pathway inhibitor. Thus, the possibility of inducing the cell death of senescent cells by CCC021-TPP treatment and combined use with the BCL2/BCL-XL inhibitor ABT-263 was observed under an optical microscope to observe change in cell morphology. Five hundred A549 cells were inoculated to a 96-well plate, cultured for 24 hours, and then observed over time under an optical microscope either without administration or after administration of 20 μM CCC021-TPP and 10 μM ABT-263 each used alone or used concurrently, and cell morphology was photographed on days 2 and 4.

A549 cells [8] = assay: Long-term cell proliferation, cell numbers counted for 8 days; settings: 20 μM
Method: (§5) The suppression of cell proliferation was further observed in the A549 and PC14 cells mentioned above for a long period. The observation was performed for 8 days under the culture conditions described above (both the mtDNA mutation cell line A549 and the PC14 cell line having no mutation were inoculated at 1×10^3 cells/well, cultured for 24 hours, and then treated with CCC021-TPP (final concentration: 20 μM)), and cell numbers were counted.

PC14 cells [9] = assay: as above; settings: 20 μM
Method: as §5

A549 cells [10] = assay: Expression of apoptosis-related factors by RT-qPCR; settings: 5 days after treatment
Method: Accordingly, as for the maintenance of senescent cells by the circumvention of apoptosis as well as change in the expression of anti-apoptotic factors BCL-XL, BCL2, and survivin and an pro-apoptotic factor BAX by CCC021-TPP treatment, the cells were recovered 5 days after CCC021-TPP treatment as described above, and RNA extraction, RNA reverse-transcription, cDNA synthesis, and RT-qPCR were performed in the same manner as in Example 1 to examine the expression of apoptosis-related factors (BCL-XL, BCL2, survivin, and BAX) in the A549 cells and the PC14 cells. The primers used for the amplification of each gene are shown below. For qPCR, amplification was performed under conditions involving a holding stage of 50° C. for 2 min→95° C. for 10 min followed by 40 cycles of a cycling stage each involving 95° C. for 15 sec→60° C. for 1 min using Applied Biosystems(R) 7500 real-time PCR system, and melt curve analysis after amplification was conducted at a melt curve stage of 95° C. for 15 sec→60° C. for 1 min→95° C. for 15 sec→60° C. for 15 sec to confirm reaction specificity from the absence of primer dimer by-products or the like in PCR products.

CN(C)CCCNC(=O)CCNC(=O)c1cc(NC(=O)c2cc(NC(=O)CCNC(=O)c3nc(NC(=O)c4cc(NC(=O)c5cc(NC(=O)CCNC(=O)CCCC[P+](c6ccccc6)(c6ccccc6)c6ccccc6)cn5C)cn4C)cn3C)cn2C)cn1C [CCC021-TPP]
mitophagy (colocalization of LC3 and cytochrome C) (A549 cells [1]): mitophagy was induced | ROS production (A549 cells [2]): excessive induction of ROS production in cytoplasm was observed | ROS production (PC14 cells [3]): rarely observed | activity of senescence marker β-galactosidase (A549 cells [4]): elevated activity of β-galactosidase was confirmed | IC50 (A549 cells [5]): 78.9 µM | IC50 (WST assay) (PC14 cells [6]): incalculable | cells that underwent apoptosis (morphology) (A549 cells [7]; combined use of 20 μM CCC021-TPP and 10 μM ABT-263): cells that evidently underwent apoptosis were already found | cells that underwent apoptosis (morphology) (A549 cells [7]; each used alone: 20 μM CCC021-TPP, 10 μM ABT-263): not detected | cell number / proliferation (A549 cells [8]): significant suppression of proliferation | cell number / proliferation (PC14 cells [9]): neither significant difference in cell number nor a cell proliferation suppressive effect was found | expression of anti-apoptotic factor BCL-XL (A549 cells [10]): increased | expression of pro-apoptotic factor BAX (A549 cells [10]): increased expression | expression of survivin (A549 cells [10]): decreased expression
